The results in this text go back to patent publication US20170190671A1, “BIS(ARYL)CATECHOL DERIVATIVES AS HERBICIDES” (E I DU PONT DE NEMOURS AND COMPANY, priority 2014, published 2017).

Common to all, as to test: Test C postemergence
Holding throughout (assay type): in vivo
What all share (conditions): scale 0 to 100; for pest or weed control at 125 g/ha: 125 g ai/ha

Experiment [1] relates to blackgrass (Alopecurus myosuroides). An excerpt: (§1) Seeds of plant species selected from blackgrass (Alopecurus myosuroides), Italian ryegrass (Lolium multiflorum), winter wheat (Triticum aestivum), galium (catchweed bedstraw, Galium aparine), corn (Zea mays), large (Lg) crabgrass (Digitaria sanguinalis), giant foxtail (Setaria faberii), johnsongrass (Sorghum halepense), lambsquarters (Chenopodium album), morningglory (Ipomoea coccinea), yellow nutsedge (Cyperus esculentus), pigweed (Amaranthus retroflexus), ragweed (common ragweed, Ambrosia elatior), soybean (Glycine max), barnyardgrass (Echinochloa crus-galli), oilseed rape (Brassica napus), waterhemp (common waterhemp, Amaranthus rudis), and velvetleaf (Abutilon theophrasti) were planted into a blend of loam soil and sand and treated preemergence with test chemicals formulated in a non-phytotoxic solvent mixture which included a surfactant.
(§2) At the same time, plants selected from these crop and weed species and also chickweed (common chickweed, Stellaria media), kochia (Kochia scoparia), and wild oat (Avena fatua), were planted in pots containing Redi-Earth® planting medium (Scotts Company, 14111 Scottslawn Road, Marysville, Ohio 43041) comprising spaghnum peat moss, vermiculite, wetting agent and starter nutrients and treated with postemergence applications of test chemicals formulated in the same manner. Plants ranged in height from 2 to 18 cm (1- to 4-leaf stage) for postemergence treatments. Treated plants and controls were maintained in a greenhouse for 13 to 15 days, after which time all species were compared to controls and visually evaluated. Plant response ratings, summarized in Table C, are based on a scale of 0 to 100 where 0 is no effect and 100 is complete control. A dash (-) response means no test result.

For experiment [2], the system named is chickweed (common chickweed, Stellaria media).
Source text: as §1, §2

The test system of experiment [3] is yellow nutsedge (Cyperus esculentus).
Source text: as §1, §2

Experiment [4] concerns giant foxtail (Setaria faberii).
Source text: as §1, §2

In experiment [5] the test system is velvetleaf (Abutilon theophrasti).
Source text: as §1, §2

The subject of experiment [6] is lambsquarters (Chenopodium album).
Source text: as §1, §2

Setting [7] is: Alopecurus myosuroides, post-emergence, 336 h, Postemergence, 16 g ai/ha, read-out: Plant response rating, Blackgrass.
Where [8] appears, read: Alopecurus myosuroides, post-emergence, 336 h, Postemergence, 31 g ai/ha, read-out: Plant response rating, Blackgrass.
[9] abbreviates: Alopecurus myosuroides, post-emergence, 336 h, Postemergence, 62 g ai/ha, read-out: Plant response rating, Blackgrass.
The mark [10] stands for this setting: Alopecurus myosuroides, post-emergence, 336 h, Postemergence, read-out: Plant response rating, Blackgrass.
[11] abbreviates: Stellaria media, post-emergence, Postemergence, 16 g ai/ha, read-out: Plant response rating, Chickweed.
The mark [12] stands for this setting: Stellaria media, post-emergence, Postemergence, 31 g ai/ha, read-out: Plant response rating, Chickweed.
Where [13] appears, read: Stellaria media, post-emergence, Postemergence, 62 g ai/ha, read-out: Plant response rating, Chickweed.
[14] abbreviates: Stellaria media, post-emergence, Postemergence, read-out: Plant response rating, Chickweed.
Where [15] appears, read: Cyperus, post-emergence, 336 h, Postemergence, 31 g ai/ha, read-out: Plant response rating, Nutsedge, Yellow.
Where [16] appears, read: Cyperus, post-emergence, 336 h, Postemergence, 62 g ai/ha, read-out: Plant response rating, Nutsedge, Yellow.
[17] abbreviates: Cyperus, post-emergence, 336 h, Postemergence, read-out: Plant response rating, Nutsedge, Yellow.
Where [18] appears, read: Setaria faberi, post-emergence, 336 h, Postemergence, 16 g ai/ha, read-out: Plant response rating, Foxtail, Giant.
Where [19] appears, read: Setaria faberi, post-emergence, 336 h, Postemergence, 31 g ai/ha, read-out: Plant response rating, Foxtail, Giant.
Setting [20] is: Setaria faberi, post-emergence, 336 h, Postemergence, 62 g ai/ha, read-out: Plant response rating, Foxtail, Giant.
Where [21] appears, read: Setaria faberi, post-emergence, 336 h, Postemergence, read-out: Plant response rating, Foxtail, Giant.
Setting [22] is: Abutilon theophrasti, post-emergence, Postemergence, 31 g ai/ha, read-out: Plant response rating, Velvetleaf.
The mark [23] stands for this setting: Abutilon theophrasti, post-emergence, Postemergence, 62 g ai/ha, read-out: Plant response rating, Velvetleaf.
Setting [24] is: Abutilon theophrasti, post-emergence, Postemergence, read-out: Plant response rating, Velvetleaf.
Setting [25] is: Chenopodium album, post-emergence, 336 h, Postemergence, 16 g ai/ha, read-out: Plant response rating, Lambsquarters.
Where [26] appears, read: Chenopodium album, post-emergence, 336 h, Postemergence, 31 g ai/ha, read-out: Plant response rating, Lambsquarters.
Setting [27] is: Chenopodium album, post-emergence, 336 h, Postemergence, 62 g ai/ha, read-out: Plant response rating, Lambsquarters.
Where [28] appears, read: Chenopodium album, post-emergence, 336 h, Postemergence, read-out: Plant response rating, Lambsquarters.

On to `N#Cc1cccc(Oc2ncc(Cl)cn2)c1Oc1ccc(Cl)cn1` [Compound 16, 2-[(5-chloro-2-pyridinyl)oxy]-3-[(5-chloro-2-pyrimidinyl)oxy]benzonitrile], for which the pest or weed control at 16 g/ha in experiment [1] (setting [7]) came to 5%; in experiment [2] (setting [11]), 25%; in experiment [4] (setting [18]), 10%; in experiment [6] (setting [25]), 65%. In addition, the pest or weed control at 31 g/ha in experiment [1] (setting [8]) stood at 5%; in experiment [2] (setting [12]), 60%; in experiment [3] (setting [15]), 10%; in experiment [4] (setting [19]) it was 15%; in experiment [5] (setting [22]) it was 65%; in experiment [6] (setting [26]), 80%. Further, the pest or weed control at 62 g/ha in experiment [1] (setting [9]) came to 5%; in experiment [2] (setting [13]) it was 80%; in experiment [3] (setting [16]) it was 10%; in experiment [4] (setting [20]), 20%; in experiment [5] (setting [23]), 60%; in experiment [6] (setting [27]), 75%. Moreover, the pest or weed control at 125 g/ha in experiment [1] (setting [10]) came out at 10%; in experiment [2] (setting [14]), 80%; in experiment [3] (setting [17]), 15%; in experiment [4] (setting [21]), 35%; in experiment [5] (setting [24]) it was 70%; in experiment [6] (setting [28]), 90%.
For `Fc1cccc(Oc2ncc(Cl)cn2)c1Oc1ccc(Cl)nc1` [Compound 20], the pest or weed control at 31 g/ha is 5% in experiment [1] (setting [8]); 35% in experiment [2] (setting [12]); 0% in experiment [3] (setting [15]); 15% in experiment [4] (setting [19]); 35% in experiment [5] (setting [22]); 85% in experiment [6] (setting [26]). For the same compound, the pest or weed control at 62 g/ha was determined as 10% in experiment [1] (setting [9]); 40% in experiment [2] (setting [13]); 5% in experiment [3] (setting [16]); 20% in experiment [4] (setting [20]); 30% in experiment [5] (setting [23]); 75% in experiment [6] (setting [27]). Also, the pest or weed control at 125 g/ha in experiment [1] (setting [10]) is 5%; in experiment [2] (setting [14]) it was 45%; in experiment [3] (setting [17]), 10%; in experiment [4] (setting [21]) it was 15%; in experiment [5] (setting [24]), 35%; in experiment [6] (setting [28]), 75%. Besides, the pest or weed control at 250 g/ha in experiment [1] (Alopecurus myosuroides, post-emergence, 336 h, Postemergence, 250 g ai/ha, read-out: Plant response rating, Blackgrass) turned out to be 15%; in experiment [2] (Stellaria media, post-emergence, Postemergence, 250 g ai/ha, read-out: Plant response rating, Chickweed) it was 80%; in experiment [3] (Cyperus, post-emergence, 336 h, Postemergence, 250 g ai/ha, read-out: Plant response rating, Nutsedge, Yellow) it was 10%; in experiment [4] (Setaria faberi, post-emergence, 336 h, Postemergence, 250 g ai/ha, read-out: Plant response rating, Foxtail, Giant) it was 15%; in experiment [5] (Abutilon theophrasti, post-emergence, Postemergence, 250 g ai/ha, read-out: Plant response rating, Velvetleaf), 55%; in experiment [6] (Chenopodium album, post-emergence, 336 h, Postemergence, 250 g ai/ha, read-out: Plant response rating, Lambsquarters), 80%.
As for `Fc1ccc(F)c(Oc2ncc(C(F)(F)F)cn2)c1Oc1ncc(Cl)cn1` [Compound 25], the “Plant response rating, Blackgrass” value was 0 in experiment [1] (8 g ai/ha, postemergence); 0 in experiment [1] (Postemergence, 16 g ai/ha); 5 in experiment [1] (Postemergence, 31 g ai/ha); 5 in experiment [1] (Postemergence, 62 g ai/ha). The “Plant response rating, Chickweed” value came to 0 in experiment [2] (8 g ai/ha, postemergence); 20 in experiment [2] (Postemergence, 16 g ai/ha); 50 in experiment [2] (Postemergence, 31 g ai/ha); 60 in experiment [2] (Postemergence, 62 g ai/ha). For the same compound, the “Plant response rating, Nutsedge, Yellow” value in experiment [3] (8 g ai/ha, postemergence) is reported as 0; in experiment [3] (Postemergence, 31 g ai/ha), 5; in experiment [3] (Postemergence, 62 g ai/ha), 10. In addition, the “Plant response rating, Foxtail, Giant” value in experiment [4] (8 g ai/ha, postemergence) was 0; in experiment [4] (Postemergence, 16 g ai/ha) it was 0; in experiment [4] (Postemergence, 31 g ai/ha), 0; in experiment [4] (Postemergence, 62 g ai/ha), 5. Moreover, the “Plant response rating, Velvetleaf” value in experiment [5] (8 g ai/ha, postemergence) amounted to 30; in experiment [5] (Postemergence, 31 g ai/ha) it was 60; in experiment [5] (Postemergence, 62 g ai/ha) it was 30. The “Plant response rating, Lambsquarters” value is on record as 60 in experiment [6] (8 g ai/ha, postemergence); 80 in experiment [6] (Postemergence, 16 g ai/ha); 80 in experiment [6] (Postemergence, 31 g ai/ha); 75 in experiment [6] (Postemergence, 62 g ai/ha).
Consider `N#Cc1cccc(Oc2ncc(Cl)cn2)c1Oc1ccc(Cl)cc1` [Compound 36], for which the pest or weed control at 16 g/ha in experiment [1] (setting [7]) worked out at 5%; in experiment [2] (setting [11]) it was 70%; in experiment [4] (setting [18]) it was 5%; in experiment [6] (setting [25]), 90%. For the same compound, the pest or weed control at 31 g/ha in experiment [1] (setting [8]) was 5%; in experiment [2] (setting [12]), 75%; in experiment [3] (setting [15]), 5%; in experiment [4] (setting [19]), 5%; in experiment [5] (setting [22]), 45%; in experiment [6] (setting [26]), 95%. Also, the pest or weed control at 62 g/ha was 30% in experiment [1] (setting [9]); 80% in experiment [2] (setting [13]); 10% in experiment [3] (setting [16]); 10% in experiment [4] (setting [20]); 70% in experiment [5] (setting [23]); 98% in experiment [6] (setting [27]). Also, the pest or weed control at 125 g/ha in experiment [1] (setting [10]) was 30%; in experiment [2] (setting [14]), 100%; in experiment [3] (setting [17]) it was 15%; in experiment [4] (setting [21]) it was 10%; in experiment [5] (setting [24]), 80%; in experiment [6] (setting [28]), 100%.
